Measurements reported in patent US10596291B2, “Effective anti-bacteria and anti-viral air treatment device” (KONINKLIJKE PHILIPS N.V., priority 2014, dated 2020).
Where two headings read alike, the source gives them in different places.

Test: Particle generation and ozone consumption by type of terpene in 26.5 m^3 test chamber
Assay type: physicochemical
Experimental: Some further measurements were done with setups as describe above. Data in relation to particle generation and ozone consumption as function of type of terpene were determined. […] It is clear that e.g. eucalyptol and thymol is most desired amongst these four options.

[1] = terpene approx. 1 mg/m^3, 26.5 m^3 test chamber, initial ozone 100 ppb
[2] = terpene concentration 1 mg/m^3, 26.5 m^3 test chamber, initial ozone 100 ppb

Compound	Particle yield [1]	average O3 consumption [2]	Particle yield	average O3 consumption
y-terpinene	–	–	112499.9 10^6/mol	19%
Cc1ccc(C(C)C)cc1O [Carvacrol]	–	–	851.8 10^6/mol	0%
C=CCc1ccc(O)c(OC)c1 [Eugenol]	18742.9 10^6/mol	15%	–	–
CC12CCC(CC1)C(C)(C)O2 [Eucalyptol, Eucalyptol (1,8-cineol)]	779.9 10^6/mol	2%	–	–

Continued, in another order:

Particle yield [1]	average O3 consumption [2]	Compound	Particle yield	average O3 consumption
498.2 10^6/mol	2%	Cc1ccc(C(C)C)c(O)c1 [Thymol]	–	–
94003.4 10^6/mol	31%	C=C(C)[C@H]1CC=C(C)CC1 [Limonene]	–	–
76911.2 10^6/mol	44%	C=CC(C)(O)CCC=C(C)C (stereo not shown) [Linalool]	–	–
57608.1 10^6/mol	54%	CC(C)=CCC/C(C)=C/CO [Geraniol]	–	–
